From patent US12053533B2, “Fluorescent probe for cyclooxygenase-2” (The Board of Trustees of the University of Illinois, priority 2020, dated 2024)
Entries after “also recorded” stand apart in the source; their conditions may differ.

Legend:
[1] = biological target: T1, COX-1 isolated from bovine vesicles (Bos taurus, UniProt O62664); assay: Isoform selectivity: CoxFluor incubated with COX-1; format: biochemical; details: even in the presence of 10-fold excess enzyme activity
T1 construct: COX-1 isolated from bovine vesicles; from tissue; host or cells: bovine vesicles
T1 sequence (O62664 25-600): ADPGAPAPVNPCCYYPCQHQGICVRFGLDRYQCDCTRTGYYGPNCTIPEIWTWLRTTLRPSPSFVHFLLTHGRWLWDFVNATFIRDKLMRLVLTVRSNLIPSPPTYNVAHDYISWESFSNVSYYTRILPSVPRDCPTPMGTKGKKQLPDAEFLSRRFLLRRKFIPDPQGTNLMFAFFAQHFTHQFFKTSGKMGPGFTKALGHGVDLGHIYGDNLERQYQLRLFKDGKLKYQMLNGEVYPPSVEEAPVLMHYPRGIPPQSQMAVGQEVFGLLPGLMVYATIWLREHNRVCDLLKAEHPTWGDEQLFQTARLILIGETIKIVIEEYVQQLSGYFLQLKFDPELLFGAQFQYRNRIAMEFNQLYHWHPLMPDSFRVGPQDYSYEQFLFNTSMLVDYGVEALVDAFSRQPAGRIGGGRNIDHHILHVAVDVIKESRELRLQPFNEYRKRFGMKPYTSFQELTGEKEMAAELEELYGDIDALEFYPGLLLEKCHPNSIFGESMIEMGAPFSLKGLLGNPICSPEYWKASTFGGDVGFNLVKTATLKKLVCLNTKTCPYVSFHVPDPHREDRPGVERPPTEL
Method: Enzyme Selectivity. Enzyme activity was defined as the amount substrate (μmol) consumed during one minute by one milligram of enzyme in 100 mM Tris-HCl at pH 8.0 under saturating conditions. Enzyme concentrations were measured using the BCA assay (Thermo Fisher Scientific) according to the published protocol with bovine serum albumin for the standard curve. […] The oxygen electrode was calibrated using 1% sodium sulfite for 0% oxygen and atmosphere equilibrated 100 mM Tris-HCl at pH 8.0 for 100% oxygen. The reaction was monitored at 37° C. in a glass chamber with a total reaction volume of 1 mL. […] When measured, all enzyme activities were confirmed to be under saturating conditions and within the first 20% of the reaction. The selectivity of CoxFluor (10 μM) was monitored after incubation with either 0.101 U COX-2 or 1.01 U of the other enzymes, unless noted otherwise above, in 100 mM Tris-HCl buffer at pH 8.0 using the plate reader with excitation at 540 nm and emission at 590 nm. Total reaction volume was maintained at 95 μL with a final DMSO concentration of 1.26% (v/v).

[2] = system: horseradish peroxidase, bovine catalase, porcine esterase, human CYP2J2 (with cytochrome reductase), rat liver microsomes; assay: Enzyme selectivity panel (off-target activation); format: biochemical; details: 10-fold excess protein (1.01 U vs 0.101 U COX-2), CoxFluor 10 μM
Method: Enzyme Selectivity. Enzyme activity was defined as the amount substrate (μmol) consumed during one minute by one milligram of enzyme in 100 mM Tris-HCl at pH 8.0 under saturating conditions. Enzyme concentrations were measured using the BCA assay (Thermo Fisher Scientific) according to the published protocol with bovine serum albumin for the standard curve. COX-1 and COX-2 cyclooxygenase activities were measured using Strathkelvin oxygen electrode with arachidonic acid (200 μM). The oxygen electrode was calibrated using 1% sodium sulfite for 0% oxygen and atmosphere equilibrated 100 mM Tris-HCl at pH 8.0 for 100% oxygen. The reaction was monitored at 37° C. in a glass chamber with a total reaction volume of 1 mL. […]
Porcine esterase activity was measured spectroscopically at 405 nm using p-nitrophenyl acetate (1.5 mM) as the substrate. Bovine catalase activity was measured using a discontinuous Amplex® Red-horseradish peroxidase assay to quantify the amount of hydrogen peroxide (initially 31.25 μM) remaining after 0.5 h incubation with excitation at 540 nm and emission at 590 nm. CYP2J2 activity was measured spectroscopically at 340 nm using […] (3-fold excess), NADPH (1 mM), and arachidonic acid (70 μM) as the substrate. […]
Selectivity was assessed using 10-fold excess protein (350 μg/mL) and the solution was brought to a pH of 8.0 after 4 h with 0.5 M aq. […]

[3] = CoxFluor, Ctrl-CoxFluor & Resorufin stability assays; format: physicochemical; details: 8 hours at room temperature or 37° C., with or without ambient light
Method: CoxFluor, Ctrl-CoxFluor & Resorufin Stability Assays. Stability assays were performed for a 10 μM solution of each compound in a series of buffers/solvents (100 mM Tris-HCl at pH 8.0, DMEM with 10% FBS, DMEM without serum and DMSO). Stability was assessed at room temperature or at 37° C. and in the presence or absence of ambient light. Fluorescence was measured using the plate reader with excitation at 540 nm and emission from 560-700 nm and the relative turn-on was determined by the change of fluorescence intensity at 590 nm.

[4] = system: COX-2 activity in RAW 264.7 macrophage cells; assay: Flow cytometry of LPS-induced COX-2 activity in RAW 264.7 macrophages; format: cell-based, mouse; details: CoxFluor 10 μM
Text: Flow Cytometry of Lipopolysaccharide-induced COX-2 Expression in RAW 264.7 Macrophages. […] After staining, cells were pelleted using the aforementioned procedure and were resuspended in PBS. […] Replicate numbers correspond to biological replicates.

With CCCCC/C=C\C/C=C\C/C=C\C/C=C\CCCC(=O)N1c2ccc(O)cc2Oc2cc(O)ccc21 [CoxFluor] the “fluorescent enhancement with COX-1” value [1] was “not observed; also recorded: No fluorescent enhancement was observed”, the “selectivity against tested enzymes” value [2] was “good selectivity” and the “stability in Tris-HCl and DMEM buffer systems” value [3] was “stable”. The “increase in median fluorescence, cells activated 19 hr compared to 4 hr” value ([4]; after BSO pre-treatment) was 1.6 fold and the “increase in activity after 19 hr LPS-activation relative to 4 hr” value ([4]; without GSH depletion) was 1.2 fold.
